Values of other authors in PubChem BioAssay AID1259409 (Chemical Carcinogenesis Research Information System (CCRIS), 2018).

Test system: rodent chemically induced tumor inhibition, incidence and multiplicity
Experiment: CCRIS tumor inhibitor studies
Conditions: Carcinogen: N-NITROSOBIS(2-OXYPROPYL)AMINE, 60599-38-4, Route [Inhibitor]: ORAL, Species: HAMSTER, Promoter: NONE USED

## CCNC(=O)/C=C(C)/C=C/C=C(C)/C=C/C1=C(C)CCCC1(C)C
Dose [Inhibitor]: 0.05, 0.1 OR 0.2 MILLIMOLAR/KG DIET FOR 32 WK STARTING 1 WK AFTER THE CARCINOGEN DOSE (STUDY DURATION: 33 WK), Strain/Sex: SYRIAN/FEMALE, Target Tissue: Type of Lesion: GALL BLADDER: ADENOMA, Dose [Carcinogen]: 40 MG/KG ONCE
  tumour outcome (control, treated, inhibition, significance): 6/10 (60%), 2/23 (9%), 85%, p<0.025
Dose [Inhibitor]: 0.05, 0.1 OR 0.2 MILLIMOLAR/KG DIET FOR 32 WK STARTING 1 WK AFTER THE CARCINOGEN DOSE (STUDY DURATION: 33 WK), Strain/Sex: SYRIAN/FEMALE, Target Tissue: Type of Lesion: LIVER: ADENOMA, Dose [Carcinogen]: 40 MG/KG ONCE
  tumour outcome (control, treated, inhibition, significance): 6/10 (60%), 13/23 (59%), 2%, not significant
Dose [Inhibitor]: 0.05, 0.1 OR 0.2 MILLIMOLAR/KG DIET FOR 32 WK STARTING 1 WK AFTER THE CARCINOGEN DOSE (STUDY DURATION: 33 WK), Strain/Sex: SYRIAN/FEMALE, Target Tissue: Type of Lesion: LUNG: ADENOMA, Dose [Carcinogen]: 40 MG/KG ONCE
  tumour outcome (control, treated, inhibition, significance): 3/10 (30%), 9/23 (41%), -37%, not significant
Dose [Inhibitor]: 0.05, 0.1 OR 0.2 MILLIMOLAR/KG DIET FOR 32 WK STARTING 1 WK AFTER THE CARCINOGEN DOSE (STUDY DURATION: 33 WK), Strain/Sex: SYRIAN/FEMALE, Target Tissue: Type of Lesion: PANCREAS: ADENOMA, Dose [Carcinogen]: 40 MG/KG ONCE
  tumour outcome (control, treated, inhibition, significance): 10/10 (100%), 22/23 (96%), 4%, not significant
Dose [Inhibitor]: 0.05, 0.1 OR 0.2 MILLIMOLAR/KG DIET FOR 32 WK STARTING 1 WK AFTER THE CARCINOGEN DOSE (STUDY DURATION: 33 WK), Strain/Sex: SYRIAN/FEMALE, Target Tissue: Type of Lesion: PANCREAS: CARCINOMA, Dose [Carcinogen]: 40 MG/KG ONCE
  tumour outcome (control, treated, inhibition, significance): 4/10 (40%), 10/23 (43%), -8%, not significant
Dose [Inhibitor]: 0.05, 0.1 OR 0.2 MILLIMOLAR/KG DIET FOR 32 WK STARTING 1 WK AFTER THE CARCINOGEN DOSE (STUDY DURATION: 33 WK), Strain/Sex: SYRIAN/MALE, Target Tissue: Type of Lesion: COMMON DUCT: ADENOMA, Dose [Carcinogen]: 40 MG/KG ONCE
  tumour outcome (control, treated, inhibition, significance): 4/12 (33%), 14/26 (54%), -64%, not significant
Dose [Inhibitor]: 0.05, 0.1 OR 0.2 MILLIMOLAR/KG DIET FOR 32 WK STARTING 1 WK AFTER THE CARCINOGEN DOSE (STUDY DURATION: 33 WK), Strain/Sex: SYRIAN/MALE, Target Tissue: Type of Lesion: GALL BLADDER: ADENOMA, Dose [Carcinogen]: 40 MG/KG ONCE
  tumour outcome (control, treated, inhibition, significance): 3/12 (25%), 10/26 (39%), -56%, not significant
Dose [Inhibitor]: 0.05, 0.1 OR 0.2 MILLIMOLAR/KG DIET FOR 32 WK STARTING 1 WK AFTER THE CARCINOGEN DOSE (STUDY DURATION: 33 WK), Strain/Sex: SYRIAN/MALE, Target Tissue: Type of Lesion: LIVER: ADENOMA, Dose [Carcinogen]: 40 MG/KG ONCE
  tumour outcome (control, treated, inhibition, significance): 6/12 (50%), 12/26 (46%), 8%, not significant
Dose [Inhibitor]: 0.05, 0.1 OR 0.2 MILLIMOLAR/KG DIET FOR 32 WK STARTING 1 WK AFTER THE CARCINOGEN DOSE (STUDY DURATION: 33 WK), Strain/Sex: SYRIAN/MALE, Target Tissue: Type of Lesion: LUNG: ADENOMA, Dose [Carcinogen]: 40 MG/KG ONCE
  tumour outcome (control, treated, inhibition, significance): 1/12 (8%), 2/26 (8%), 0%, not significant
Dose [Inhibitor]: 0.05, 0.1 OR 0.2 MILLIMOLAR/KG DIET FOR 32 WK STARTING 1 WK AFTER THE CARCINOGENDOSE (STUDY DURATION: 33 WK), Strain/Sex: SYRIAN/MALE, Target Tissue: Type of Lesion: PANCREAS: ADENOMA, Dose [Carcinogen]: 40 MG/KG ONCE
  tumour outcome (control, treated, inhibition, significance): 12/12 (100%), 26/26 (100%), 0%, not significant
Dose [Inhibitor]: 0.05, 0.1 OR 0.2 MILLIMOLAR/KG DIET FOR 32 WK STARTING 1 WK AFTER THE CARCINOGENDOSE (STUDY DURATION: 33 WK), Strain/Sex: SYRIAN/MALE, Target Tissue: Type of Lesion: PANCREAS: CARCINOMA, Dose [Carcinogen]: 40 MG/KG ONCE
  tumour outcome (control, treated, inhibition, significance): 6/12 (50%), 13/26 (50%), 0%, not significant
Dose [Inhibitor]: 0.05, 0.1 OR 0.2 MM/KG DIET FOR 32 WK STARTING 1 WK AFTER THE CARCINOGEN DOSE (STUDY DURATION: 33 WK), Strain/Sex: SYRIAN/FEMALE, Target Tissue: Type of Lesion: PANCREAS: ADENOCARCINOMA, Dose [Carcinogen]: 40 MG/KG ONCE
  tumour outcome (control, treated, inhibition, significance): 2/10 (20%), 2/23 (9%), 55%, not significant
Dose [Inhibitor]: 0.05, 0.1 OR 0.2 MM/KG DIET FOR 32 WK STARTING 1 WK AFTER THE CARCINOGEN DOSE (STUDY DURATION: 33 WK), Strain/Sex: SYRIAN/FEMALE, Target Tissue: Type of Lesion: PANCREAS: CARCINOMA IN SITU, Dose [Carcinogen]: 40 MG/KG, ONCE, ONE WK PRIOR TO START OF AGENT TREATMENT
  tumour outcome (control, treated, inhibition, significance): 1/10 (10%), 7/23 (30%), -200%, not significant
Dose [Inhibitor]: 0.05, 0.1 OR 0.2 MM/KG DIET FOR 32 WK STARTING 1 WK AFTER THE CARCINOGEN DOSE (STUDY DURATION: 33 WK), Strain/Sex: SYRIAN/FEMALE, Target Tissue: Type of Lesion: PANCREAS: INTRADUCTAL CARCINOMA, Dose [Carcinogen]: 40 MG/KG, ONCE, ONE WK PRIOR TO START OF AGENT TREATMENT
  tumour outcome (control, treated, inhibition, significance): 2/10 (20%), 3/23 (9%), 55%, not significant
Dose [Inhibitor]: 0.05, 0.1 OR 0.2 MM/KG DIET FOR 32 WK STARTING 1 WK AFTER THE CARCINOGEN DOSE (STUDY DURATION: 33 WK), Strain/Sex: SYRIAN/MALE, Target Tissue: Type of Lesion: PANCREAS: ADENOCARCINOMA, Dose [Carcinogen]: 40 MG/KG, ONCE, ONE WK PRIOR TO START OF AGENT TREATMENT
  tumour outcome (control, treated, inhibition, significance): 1/12 (8%), 2/26 (8%), 0%, not significant
Dose [Inhibitor]: 0.05, 0.1 OR 0.2 MM/KG DIET FOR 32 WK STARTING 1 WK AFTER THE CARCINOGEN DOSE (STUDY DURATION: 33 WK), Strain/Sex: SYRIAN/MALE, Target Tissue: Type of Lesion: PANCREAS: CARCINOMA IN SITU, Dose [Carcinogen]: 40 MG/KG, ONCE, ONE WK PRIOR TO START OF AGENT TREATMENT
  tumour outcome (control, treated, inhibition, significance): 3/12 (25%), 8/26 (31%), -24%, not significant
Dose [Inhibitor]: 0.05, 0.1 OR 0.2 MM/KG DIET FOR 32 WK STARTING 1 WK AFTER THE CARCINOGEN DOSE (STUDY DURATION: 33 WK), Strain/Sex: SYRIAN/MALE, Target Tissue: Type of Lesion: PANCREAS: INTRADUCTAL CARCINOMA, Dose [Carcinogen]: 40 MG/KG, ONCE, ONE WK PRIOR TO START OF AGENT TREATMENT
  tumour outcome (control, treated, inhibition, significance): 2/12 (17%), 3/26 (12%), 29%, not significant
Dose [Inhibitor]: 0.05, 0.1 OR 0.2 MM/KG DIET FOR 32 WK STARTING 1 WK AFTER THE CARCINOGEN DOSE (STUDY DURATION: 33 WK), Strain/Sex: SYRIAN/MALE, Target Tissue: Type of Lesion: PANCREAS: MICROCARCINOMA, Dose [Carcinogen]: 40 MG/KG, ONCE, ONE WK PRIOR TO START OF AGENT TREATMENT
  tumour outcome (control, treated, inhibition, significance): 3/12 (25%), 4/26 (15%), 40%, not significant
